The text below walks through data of US10501425B2, “Microbiocidal oxadiazole derivatives” (SYNGENTA PARTICIPATIONS AG, priority 2015, dated 2019).

Values joined by “and” are separate entries in the source; they are usually repeats but may differ in a detail not shown here. Identical values can stand only once. Where only a bound is given, the exact number is not on record here.

For series [1], the system named is Puccinia recondita f. Sp. Tritici. Briefly: Puccinia recondita f. sp. tritici / wheat / leaf disc preventative (brown rust). In kind it is in vivo. Particulars: foliar, 200 ppm in the applied formulation, wheat leaf segments cv. Kanzler, preventative (inoculated 1 day after application), compared to untreated, read-out: disease control. An outline of the steps:
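Compound, diluted from DMSO solution into aqueous 0.025% Tween20, is sprayed at 200 ppm onto cut wheat segments (cv. Kanzler) placed on water agar. One day on, segments receive a fungal spore suspension and are incubated at 19° C., 75% rh, 12 h photoperiod, with % control vs untreated scored at 7–9 days.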

The test system is the same in series [2]. As to the kind of experiment: Puccinia recondita f. sp. tritici / wheat / leaf disc curative (brown rust). In kind it is in vivo. Particulars: foliar, 24 h, 200 ppm in the applied formulation, wheat leaf segments cv. Kanzler, curative (applied 1 day after inoculation), compared to untreated, read-out: disease control. Summed up: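 Compounds, prepared from DMSO solutions of at most 10 mg/ml and diluted just before spraying, are applied curatively to inoculated Kanzler wheat leaf segments. Segments are incubated at 19° C and 75% RH in a climate cabinet; disease control relative to untreated is evaluated 6 to 8 days later.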

The subject of series [3] is Glomerella lacenarium (Colletotrichum lagenarium). As to the kind of experiment: Glomerella lagenarium liquid culture / cucumber / preventative (anthracnose). The settings on record: Colletotrichum orbiculare; 20 ppm in the applied formulation; liquid culture (PDB), growth inhibition measured photometrically 3 to 4 days after application; compared to untreated; read-out: disease control. In kind it is cell-based. Summed up: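 Conidia from cryogenic storage were mixed into potato dextrose broth. This was added to compound diluted from DMSO into 0.025% Tween20, tested at 20 ppm. Plates were incubated in the dark at 24 °C and 96% relative humidity, and growth was read photometrically after 2–7 days as % activity versus untreated check.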

The test system of a further series is Phakopsora pachyrhizi. Briefly: Phakopsora pachyrhizi / soybean / leaf disc preventative (Asian soybean rust). In kind it is in vivo. Particulars: foliar, 200 ppm in the applied formulation, soybean leaf disks, compared to untreated, read-out: disease control. An outline of the steps: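 Read-out is percent disease control relative to untreated check discs, assessed once untreated discs show adequate disease, 12 to 14 days after application. Compounds, tested at 200 ppm in the applied formulation, are sprayed onto soybean leaf discs one day before inoculation with a spore suspension.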

Consider `CC(C)(C)OC(=O)NCCc1ccc(-c2noc(C(F)(F)F)n2)cc1` [Compound 2.1, tert-butyl N-[2-[4-[5-(trifluoromethyl)-1,2,4-oxadiazol-3-yl]phenyl]ethyl]carbamate], for which the melting point (as a rule, the temperature of the solid-liquid transition) is 81 to 83 °C and 81 to 83.1 °C. Besides, in series [1], the pest or weed control at 200 ppm was ≥ 80%. Also, the pest or weed control at 200 ppm in series [2] was ≥ 80%. The inhibition of growth at 20 ppm in series [3] is ≥ 80%.

On to `CCCNC(=O)NCc1ccc(-c2noc(C(F)(F)F)n2)cc1` [Compound 3.6, 1-propyl-3-[[4-[5-(trifluoromethyl)-1,2,4-oxadiazol-3-yl]phenyl]methyl]urea], for which the melting point is 174.1 to 176.4 °C. Also, the pest or weed control at 200 ppm in series [1] is ≥ 80%. Besides, the pest or weed control at 200 ppm with Phakopsora pachyrhizi is ≥ 80%. For the same molecule, in series [3], the inhibition of growth at 20 ppm was ≥ 80%.

Consider `COCCC(=O)NC1(c2ccc(-c3noc(C(F)(F)F)n3)cc2)CC1` [Compound 1.98, 3-methoxy-N-[1-[4-[5-(trifluoromethyl)-1,2,4-oxadiazol-3-yl]phenyl]cyclopropyl]propanamide], for which the melting point was 113 to 118 °C. Moreover, in series [1], the pest or weed control at 200 ppm is ≥ 80%. For the same molecule, the pest or weed control at 200 ppm in series [2] was ≥ 80%. The inhibition of growth at 20 ppm in series [3] is ≥ 80%.

Turning to `CCC(=O)NCc1ccc(-c2noc(C(F)(F)F)n2)cc1C` [Compound 1.81, N-[[2-methyl-4-[5-(trifluoromethyl)-1,2,4-oxadiazol-3-yl]phenyl]methyl]propanamide], the melting point lay in the range of 140 to 143 °C. Further, the inhibition of growth at 20 ppm in series [3] is ≥ 80%.

The molecule `CC(C)(O)C(=O)NCc1ccc(-c2noc(C(F)(F)F)n2)cc1` [Compound 1.104, 2-hydroxy-2-methyl-N-[[4-[5-(trifluoromethyl)-1,2,4-oxadiazol-3-yl]phenyl]methyl]propanamide] had a melting point of 95 to 98 °C. Besides, the pest or weed control at 200 ppm in series [1] is ≥ 80%. For the same molecule, the pest or weed control at 200 ppm in series [2] was ≥ 80%. For the same molecule, the inhibition of growth at 20 ppm in series [3] was ≥ 80%.

Turning to `COC(C)C(=O)NCc1ccc(-c2noc(C(F)(F)F)n2)nc1` (centres unmarked) [Compound 1.105, 2-methoxy-N-[[6-[5-(trifluoromethyl)-1,2,4-oxadiazol-3-yl]-3-pyridyl]methyl]propanamide], the melting point was in the range of 99 to 103 °C. In series [1], the pest or weed control at 200 ppm is ≥ 80%. Also, the pest or weed control at 200 ppm in series [2] is ≥ 80%. Moreover, the inhibition of growth at 20 ppm in series [3] was ≥ 80%.

Take `CC(C)C(=O)NCc1ccc(-c2noc(C(F)(F)F)n2)nc1` [Compound 1.106, 2-methyl-N-[[6-[5-(trifluoromethyl)-1,2,4-oxadiazol-3-yl]-3-pyridyl]methyl]propanamide]: the melting point was in the range of 151 to 153 °C. Besides, in series [1], the pest or weed control at 200 ppm is ≥ 80%. In series [2], the pest or weed control at 200 ppm is ≥ 80%.

Take `O=C(CO)NCc1ccc(-c2noc(C(F)(F)F)n2)cc1` [Compound 1.27, 2-hydroxy-N-[[4-[5-(trifluoromethyl)-1,2,4-oxadiazol-3-yl]phenyl]methyl]acetamide]: the melting point was in the range of 107 to 112 °C. Moreover, the pest or weed control at 200 ppm in series [1] was ≥ 80%. In addition, the pest or weed control at 200 ppm in series [2] is ≥ 80%. For the same molecule, in series [3], the inhibition of growth at 20 ppm was ≥ 80%.

As for `CCC(=O)NCc1ccc(-c2noc(C(F)(F)F)n2)cc1OC` [Compound 1.30, N-[[2-methoxy-4-[5-(trifluoromethyl)-1,2,4-oxadiazol-3-yl]phenyl]methyl]propanamide], the melting point fell in the range of 163 to 165 °C.

`CCC(=O)NCc1ccc(-c2noc(C(F)(F)F)n2)cc1Cl` [Compound 1.32, N-[[2-chloro-4-[5-(trifluoromethyl)-1,2,4-oxadiazol-3-yl]phenyl]methyl]propanamide] displayed a melting point of 126 to 130 °C. Besides, the pest or weed control at 200 ppm in series [1] was ≥ 80%. In addition, the pest or weed control at 200 ppm in the series on Phakopsora pachyrhizi is ≥ 80%. Further, the inhibition of growth at 20 ppm in series [3] was ≥ 80%.

Turning to `CC(C)C(=O)NCc1ccc(-c2noc(C(F)(F)F)n2)cc1F` [Compound 1.35, N-[[2-fluoro-4-[5-(trifluoromethyl)-1,2,4-oxadiazol-3-yl]phenyl]methyl]-2-methyl-propanamide], the pest or weed control at 200 ppm (in series [1]; in series [2]; in the series with Phakopsora pachyrhizi) was ≥ 80% throughout. Further, the inhibition of growth at 20 ppm in series [3] is ≥ 80%.

As for `CCC(C)(CC)C(=O)NCc1ccc(-c2noc(C(F)(F)F)n2)cc1` [Compound 1.20, 2-ethyl-2-methyl-N-[[4-[5-(trifluoromethyl)-1,2,4-oxadiazol-3-yl]phenyl]methyl]butanamide], the pest or weed control at 200 ppm (in series [1]; in series [2]; in the series on Phakopsora pachyrhizi) was ≥ 80% throughout. For the same molecule, in series [3], the inhibition of growth at 20 ppm was ≥ 80%.

Consider `CC(C)C(=O)NCCc1ccc(-c2noc(C(F)(F)F)n2)cc1` [Compound 1.83, 2-methyl-N-[2-[4-[5-(trifluoromethyl)-1,2,4-oxadiazol-3-yl]phenyl]ethyl]propanamide], for which the pest or weed control at 200 ppm (in series [1]; in series [2]; in the series on Phakopsora pachyrhizi) was ≥ 80% in each case. For the same molecule, the inhibition of growth at 20 ppm in series [3] was ≥ 80%.

Consider `O=C(CC(F)(F)F)NCc1ccc(-c2noc(C(F)(F)F)n2)c(F)c1` [Compound 1.44, 3,3,3-trifluoro-N-[[3-fluoro-4-[5-(trifluoromethyl)-1,2,4-oxadiazol-3-yl]phenyl]methyl]propanamide], for which the pest or weed control at 200 ppm (in series [1]; in series [2]; in the series with Phakopsora pachyrhizi) was ≥ 80% throughout. Besides, the inhibition of growth at 20 ppm in series [3] was ≥ 80%.

For the molecule `CCN(C)C(=O)NCc1ccc(-c2noc(C(F)(F)F)n2)cc1` [Compound 3.13, 1-ethyl-1-methyl-3-[[4-[5-(trifluoromethyl)-1,2,4-oxadiazol-3-yl]phenyl]methyl]urea], the pest or weed control at 200 ppm (in series [1]; in series [2]; in the series on Phakopsora pachyrhizi) was ≥ 80% each time. In series [3], the inhibition of growth at 20 ppm was ≥ 80%.

In the case of `CCC(=O)NCc1ccc(-c2noc(C(F)(F)F)n2)cc1C(F)(F)F` [Compound 1.31, N-[[2-(trifluoromethyl)-4-[5-(trifluoromethyl)-1,2,4-oxadiazol-3-yl]phenyl]methyl]propanamide], the melting point lay in the range of 100 to 102 °C.

For the molecule `CCCCCC(=O)NCc1ccc(-c2noc(C(F)(F)F)n2)cc1` [Compound 1.8, N-[[4-[5-(trifluoromethyl)-1,2,4-oxadiazol-3-yl]phenyl]methyl]hexanamide], the pest or weed control at 200 ppm (in series [1]; in series [2]; with Phakopsora pachyrhizi) was ≥ 80% in each case. Besides, the inhibition of growth at 20 ppm in series [3] is ≥ 80%.

`CC(=O)NCc1ccc(-c2noc(C(F)(F)F)n2)c(F)c1` [Compound 1.47, N-[[3-fluoro-4-[5-(trifluoromethyl)-1,2,4-oxadiazol-3-yl]phenyl]methyl]acetamide]: the pest or weed control at 200 ppm (in series [1]; in series [2]; in the series with Phakopsora pachyrhizi) was ≥ 80% throughout. The inhibition of growth at 20 ppm in series [3] is ≥ 80%.

On to `CCOCCOC(=O)NCc1ccc(-c2noc(C(F)(F)F)n2)cc1C(F)(F)F` [Compound 2.2, 2-ethoxyethyl N-[[2-(trifluoromethyl)-4-[5-(trifluoromethyl)-1,2,4-oxadiazol-3-yl]phenyl]methyl]carbamate], for which the melting point fell in the range of 60 to 66 °C. The inhibition of growth at 20 ppm in series [3] was ≥ 80%.
